{"source": "patent US7049313B2", "about": "“ATM inhibitors” (Kudos Pharmaceuticals Ltd., priority 2002, dated 2006)", "data": [{"target": "T1, ATM (Homo sapiens, UniProt Q13315)", "T1 construct": "ATM protein was immunoprecipitated from HeLa cell nuclear extract; endogenous in cells; host or cells: HeLa cell nuclear extract (immunoprecipitate)", "T1 sequence (Q13315 whole entry)": "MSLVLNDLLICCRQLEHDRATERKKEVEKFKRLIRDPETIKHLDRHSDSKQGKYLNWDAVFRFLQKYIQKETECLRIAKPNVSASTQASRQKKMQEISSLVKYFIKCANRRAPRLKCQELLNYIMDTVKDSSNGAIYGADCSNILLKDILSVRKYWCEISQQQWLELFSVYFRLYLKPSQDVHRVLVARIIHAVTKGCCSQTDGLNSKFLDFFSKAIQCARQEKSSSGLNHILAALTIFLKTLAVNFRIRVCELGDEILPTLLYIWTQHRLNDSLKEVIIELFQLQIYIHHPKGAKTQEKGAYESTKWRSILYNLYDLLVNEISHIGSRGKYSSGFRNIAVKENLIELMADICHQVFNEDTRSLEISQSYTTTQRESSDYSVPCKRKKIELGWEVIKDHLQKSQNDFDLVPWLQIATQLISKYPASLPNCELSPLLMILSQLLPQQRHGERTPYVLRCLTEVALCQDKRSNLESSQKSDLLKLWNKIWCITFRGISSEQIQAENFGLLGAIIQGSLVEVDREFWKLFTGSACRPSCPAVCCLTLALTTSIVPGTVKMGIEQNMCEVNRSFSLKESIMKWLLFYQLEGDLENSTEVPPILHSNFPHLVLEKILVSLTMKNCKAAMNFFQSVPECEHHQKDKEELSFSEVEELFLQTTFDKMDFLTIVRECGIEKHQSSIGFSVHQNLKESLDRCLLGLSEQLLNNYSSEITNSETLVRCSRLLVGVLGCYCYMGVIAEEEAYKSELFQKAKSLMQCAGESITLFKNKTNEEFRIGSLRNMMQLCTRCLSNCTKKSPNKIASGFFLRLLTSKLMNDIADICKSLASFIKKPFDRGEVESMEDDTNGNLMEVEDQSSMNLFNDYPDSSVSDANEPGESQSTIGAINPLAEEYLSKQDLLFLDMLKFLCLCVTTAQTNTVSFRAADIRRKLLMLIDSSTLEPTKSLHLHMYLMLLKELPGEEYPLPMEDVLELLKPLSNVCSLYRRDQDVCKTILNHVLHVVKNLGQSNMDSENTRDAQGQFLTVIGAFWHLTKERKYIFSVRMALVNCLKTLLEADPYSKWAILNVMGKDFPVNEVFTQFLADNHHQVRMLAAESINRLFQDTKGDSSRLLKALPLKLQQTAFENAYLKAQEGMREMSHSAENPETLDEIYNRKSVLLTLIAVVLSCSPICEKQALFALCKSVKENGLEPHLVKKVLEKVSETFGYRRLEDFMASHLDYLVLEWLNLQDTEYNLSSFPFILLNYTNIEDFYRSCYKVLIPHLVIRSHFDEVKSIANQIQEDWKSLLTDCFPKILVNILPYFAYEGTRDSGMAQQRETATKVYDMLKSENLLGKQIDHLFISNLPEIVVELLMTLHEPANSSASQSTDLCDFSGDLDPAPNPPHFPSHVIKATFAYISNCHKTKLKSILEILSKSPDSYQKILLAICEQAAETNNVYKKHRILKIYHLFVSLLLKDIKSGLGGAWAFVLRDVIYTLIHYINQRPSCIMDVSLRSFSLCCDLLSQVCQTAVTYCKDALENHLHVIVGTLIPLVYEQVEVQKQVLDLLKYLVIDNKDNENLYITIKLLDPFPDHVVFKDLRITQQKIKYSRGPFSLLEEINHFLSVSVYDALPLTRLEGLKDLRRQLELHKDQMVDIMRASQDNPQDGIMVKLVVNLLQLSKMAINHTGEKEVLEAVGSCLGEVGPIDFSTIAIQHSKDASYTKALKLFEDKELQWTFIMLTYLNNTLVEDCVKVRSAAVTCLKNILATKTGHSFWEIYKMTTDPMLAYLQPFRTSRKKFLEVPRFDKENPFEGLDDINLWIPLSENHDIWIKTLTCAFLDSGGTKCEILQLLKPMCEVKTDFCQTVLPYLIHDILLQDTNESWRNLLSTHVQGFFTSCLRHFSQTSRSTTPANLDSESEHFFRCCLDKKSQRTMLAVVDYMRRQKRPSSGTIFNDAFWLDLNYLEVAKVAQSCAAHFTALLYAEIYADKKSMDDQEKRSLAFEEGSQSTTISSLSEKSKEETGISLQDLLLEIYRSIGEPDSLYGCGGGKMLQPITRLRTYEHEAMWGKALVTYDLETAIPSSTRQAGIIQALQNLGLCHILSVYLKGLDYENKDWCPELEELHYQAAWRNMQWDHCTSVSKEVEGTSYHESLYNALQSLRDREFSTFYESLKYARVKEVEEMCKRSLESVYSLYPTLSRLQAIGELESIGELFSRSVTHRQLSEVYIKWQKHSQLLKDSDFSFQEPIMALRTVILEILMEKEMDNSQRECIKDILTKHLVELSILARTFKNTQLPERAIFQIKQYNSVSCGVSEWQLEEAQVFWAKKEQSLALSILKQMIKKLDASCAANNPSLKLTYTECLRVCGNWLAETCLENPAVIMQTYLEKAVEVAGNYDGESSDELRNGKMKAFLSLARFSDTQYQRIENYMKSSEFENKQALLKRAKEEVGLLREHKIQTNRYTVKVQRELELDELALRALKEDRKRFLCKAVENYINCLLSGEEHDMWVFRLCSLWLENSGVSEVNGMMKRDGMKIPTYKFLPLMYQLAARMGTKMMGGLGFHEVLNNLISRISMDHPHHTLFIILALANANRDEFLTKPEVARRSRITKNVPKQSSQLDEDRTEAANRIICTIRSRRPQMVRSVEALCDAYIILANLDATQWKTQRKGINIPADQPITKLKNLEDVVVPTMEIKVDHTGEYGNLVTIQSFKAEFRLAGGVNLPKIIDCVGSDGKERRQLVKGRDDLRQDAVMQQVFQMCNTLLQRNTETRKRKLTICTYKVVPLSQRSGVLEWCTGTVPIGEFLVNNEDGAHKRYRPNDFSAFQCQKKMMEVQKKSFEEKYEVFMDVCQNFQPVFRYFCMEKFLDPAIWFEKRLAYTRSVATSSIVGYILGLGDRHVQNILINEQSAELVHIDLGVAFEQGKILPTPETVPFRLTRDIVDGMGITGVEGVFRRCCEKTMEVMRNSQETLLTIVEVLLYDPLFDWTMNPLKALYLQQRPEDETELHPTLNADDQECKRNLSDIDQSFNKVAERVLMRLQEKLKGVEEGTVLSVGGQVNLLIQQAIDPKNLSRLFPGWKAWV", "assay": "In vitro ATM inhibition assay (phosphorylation of GSTp53N66 on serine 15)", "type": "biochemical", "method": "In vitro ATM inhibition Assays\nIn order to assess the inhibitory action of the compounds against ATM in vitro, the following assay was used to determine IC50 values.\nATM protein was immunoprecipitated from HeLa cell nuclear extract using rabbit polyclonal anti-sera raised to the C-terminal ˜500 amino-acid residues of the human ATM protein. The immunoprecipitation was performed according to the methodology described by Banin, S. et al. (1998). 10 μl of immunoprecipitated ATM in Buffer C (50 mM Hepes, pH 7.4, 6 mM MgCl2, 150 mM NaCl, 0.1 mM sodium orthovanadate, 4 mM MnCl2, 0.1 mM dithiothreitol, 10% glycerol) was added to 32.5 μl of buffer C containing 1 μg of the ATM substrate GSTp53N66 in a V-bottomed 96 well polypropylene plate. The GSTp53N66 substrate is the amino terminal 66 amino acid residues of human wild type p53 fused to glutathione S-transferase. ATM phosphorylates p53 on the residue serine 15 (Banin, S. et al. (1998)). Varying concentrations of inhibitor were then added. […] After 10 minutes of incubation at 37° C., the reactions were initiated by the addition of 5 μl of 500 μM Na-ATP. After 1 hour with shaking at 37° C., 150 μl of phosphate buffered saline (PBS) was added to the reaction and the plate centrifuged at 1500 rpm for 10 minutes. 5 μl of the reaction was then transferred to a 96 well opaque white plate containing 45 μl of PBS to allow the GSTp53N66 substrate to bind to the plate wells. The plate was covered and incubated at room temperature for 1 hour with shaking before discarding the contents. The plate wells were washed twice by the addition of PBS prior to the addition of 3% (w/v) bovine serum albumin (BSA) in PBS. The plate was incubated at room temperature for 1 hour with shaking before discarding the contents and washing twice with PBS. To the wells, 50 μl of a 1:10,000 dilution of primary phosphoserine-15 antibody (Cell Signaling Technology, #9284L) in 3% BSA/PBS was added to detect the phosphorylation event on the serine 15 residue of p53 elicited by the ATM kinase. After 1 hour of incubation at room temperature with shaking, the wells were washed four times with PBS prior to the addition of an anti-rabbit HRP conjugated secondary antibody (Pierce, 31462) with shaking for 1 hour at room temperature. The wells were then washed four times with PBS before the addition of chemiluminescence reagent (NEN Renaissance, NEL105). The plate was then shaken briefly, covered with a transparent plate seal and transferred to a TopCount NXT for chemiluminescent counting. Counts per second, following a one second counting time, were recorded for each reaction.\nThe enzyme activity for each compound is then calculated using the following equation: […]", "units": {"IC50": "nM"}, "values": [{"smiles": "COCC(=O)Nc1ccc2c(c1)Cc1cccc(-c3cc(=O)cc(N4CCOCC4)o3)c1S2", "note": "[Compound 22]", "IC50": "< 200"}, {"smiles": "O=C(CCN(CCO)CCO)Nc1ccc2c(c1)Cc1cccc(-c3cc(=O)cc(N4CCOCC4)o3)c1S2", "note": "[Compound 72]", "IC50": "< 200"}, {"smiles": "O=C(CN1CCNCC1)Nc1ccc2c(c1)Cc1cccc(-c3cc(=O)cc(N4CCOCC4)o3)c1S2", "note": "[Compound 52]", "IC50": "< 200"}, {"smiles": "Cc1noc(C)c1C(=O)Nc1ccc2c(c1)Cc1cccc(-c3cc(=O)cc(N4CCOCC4)o3)c1S2", "note": "[Compound 33]", "IC50": "< 200"}, {"smiles": "O=C(Nc1ccc(-c2cc(=O)cc(N3CCOCC3)o2)c2c1Cc1ccccc1S2)c1ccc(-c2ccccn2)s1", "note": "[Compound 110]", "IC50": "< 200"}, {"smiles": "COC[C@@H]1CCCN1NC(=O)c1ccc2c(c1)Sc1cccc(-c3cc(=O)cc(N4CCOCC4)o3)c1S2", "note": "[Compound 163]", "IC50": "< 200"}, {"smiles": "Cc1ccoc1C(=O)Nc1ccc(-c2cc(=O)cc(N3CCOCC3)o2)c2c1Cc1ccccc1S2", "note": "[Compound 129]", "IC50": "< 200"}, {"smiles": "CC(C)(C)OC(=O)Nc1ccc2c(c1)Cc1cccc(-c3cc(=O)cc(N4CCOCC4)o3)c1S2", "note": "[Compound 19, [5-(6-Morpholin-4-yl-4-oxo-4H-pyran-2-yl)-9H-thioxanthen-2-yl]-carbamic acid tert-butyl ester]", "IC50": "< 200"}, {"smiles": "CC(=O)Oc1cccc(C(=O)Nc2ccc(-c3cc(=O)cc(N4CCOCC4)o3)c3c2Cc2ccccc2S3)c1C", "note": "[Compound 123]", "IC50": "< 200"}, {"smiles": "O=C(CCN1CCCC1)Nc1ccc2c(c1)Cc1cccc(-c3cc(=O)cc(N4CCOCC4)o3)c1S2", "note": "[Compound 76]", "IC50": "< 200"}, {"smiles": "O=C(CN1CCCNCC1)Nc1ccc2c(c1)Cc1cccc(-c3cc(=O)cc(N4CCOCC4)o3)c1S2", "note": "[Compound 60]", "IC50": "< 200"}, {"smiles": "O=C(NCCN1CCOCC1)c1ccc2c(c1)Sc1cccc(-c3cc(=O)cc(N4CCOCC4)o3)c1S2", "note": "[Compound 177]", "IC50": "< 200"}, {"smiles": "O=C(Nc1ccc2c(c1)Cc1cccc(-c3cc(=O)cc(N4CCOCC4)o3)c1S2)C1CCC1", "note": "[Compound 32]", "IC50": "< 200"}, {"smiles": "COC(=O)c1ccc2c(c1)Sc1cccc(-c3cc(=O)cc(N4CCOCC4)o3)c1S2", "note": "[Compound 137, 6-(6-Morpholin-4-yl-4-oxo-4H-pyran-2-yl)-thianthrene-2-carboxylic acid methyl ester]", "IC50": "< 200"}, {"smiles": "O=C(CNCCN1CCOCC1)Nc1ccc2c(c1)Cc1cccc(-c3cc(=O)cc(N4CCOCC4)o3)c1S2", "note": "[Compound 67]", "IC50": "< 200"}, {"smiles": "Cc1nnsc1C(=O)Nc1ccc(-c2cc(=O)cc(N3CCOCC3)o2)c2c1Cc1ccccc1S2", "note": "[Compound 111]", "IC50": "< 200"}, {"smiles": "N#Cc1ccc(C(=O)Nc2ccc(-c3cc(=O)cc(N4CCOCC4)o3)c3c2Cc2ccccc2S3)cc1", "note": "[Compound 113]", "IC50": "< 200"}, {"smiles": "O=C(CCN1CCCCCC1)Nc1ccc2c(c1)Cc1cccc(-c3cc(=O)cc(N4CCOCC4)o3)c1S2", "note": "[Compound 79]", "IC50": "< 200"}, {"smiles": "O=c1cc(-c2ccc(O)c3c2Cc2ccccc2S3)oc(N2CCOCC2)c1", "note": "[Compound 87, 2-(4-Hydroxy-9H-thioxanthen-1yl)-6-morpholin-4-yl-pyran-4-one]", "IC50": "< 200"}, {"smiles": "O=C(Nc1ccc(-c2cc(=O)cc(N3CCOCC3)o2)c2c1Cc1ccccc1S2)c1ccc[nH]1", "note": "[Compound 128]", "IC50": "< 200"}, {"smiles": "COCCN(CCOC)CC(=O)Nc1ccc2c(c1)Cc1cccc(-c3cc(=O)cc(N4CCOCC4)o3)c1S2", "note": "[Compound 55]", "IC50": "< 200"}, {"smiles": "CN(C)c1ccc(CNC(=O)c2ccc3c(c2)Sc2cccc(-c4cc(=O)cc(N5CCOCC5)o4)c2S3)cc1", "note": "[Compound 169]", "IC50": "< 200"}, {"smiles": "CCN(CC)CCCNC(=O)c1ccc2c(c1)Sc1cccc(-c3cc(=O)cc(N4CCOCC4)o3)c1S2", "note": "[Compound 182]", "IC50": "< 200"}, {"smiles": "COC(=O)CCCC(=O)Nc1ccc2c(c1)Cc1cccc(-c3cc(=O)cc(N4CCOCC4)o3)c1S2", "note": "[Compound 25]", "IC50": "< 200"}, {"smiles": "COC(=O)C(=O)Nc1ccc2c(c1)Cc1cccc(-c3cc(=O)cc(N4CCOCC4)o3)c1S2", "note": "[Compound 34]", "IC50": "< 200"}, {"smiles": "Nc1ccc(-c2cc(=O)cc(N3CCOCC3)o2)c2c1Cc1ccccc1S2", "note": "[Compound 106, 2-(1-Amino-9H-thioxanthen-4-yl)-6-morpholin-4-yl-pyran-4-one]", "IC50": "< 200"}, {"smiles": "O=C(NCc1ccncc1)c1ccc2c(c1)Sc1cccc(-c3cc(=O)cc(N4CCOCC4)o3)c1S2", "note": "[Compound 172]", "IC50": "< 200"}, {"smiles": "CCCCNC(=O)c1ccc2c(c1)Sc1cccc(-c3cc(=O)cc(N4CCOCC4)o3)c1S2", "note": "[Compound 143]", "IC50": "< 200"}, {"smiles": "C[C@@H]1CN(C(=O)c2ccc3c(c2)Sc2cccc(-c4cc(=O)cc(N5CCOCC5)o4)c2S3)C[C@H](C)O1", "note": "[Compound 159]", "IC50": "< 200"}, {"smiles": "CCN(CC)CCC(=O)Nc1ccc2c(c1)Cc1cccc(-c3cc(=O)cc(N4CCOCC4)o3)c1S2", "note": "[Compound 83]", "IC50": "< 200"}, {"smiles": "COc1ccc(CNCC(=O)Nc2ccc3c(c2)Cc2cccc(-c4cc(=O)cc(N5CCOCC5)o4)c2S3)cc1", "note": "[Compound 63]", "IC50": "< 200"}, {"smiles": "CN1CCCN(CCC(=O)Nc2ccc3c(c2)Cc2cccc(-c4cc(=O)cc(N5CCOCC5)o4)c2S3)CC1", "note": "[Compound 77]", "IC50": "< 200"}, {"smiles": "Cc1cc(C(=O)Nc2ccc3c(c2)Cc2cccc(-c4cc(=O)cc(N5CCOCC5)o4)c2S3)c(C)o1", "note": "[Compound 42]", "IC50": "< 200"}, {"smiles": "O=C(c1ccc2c(c1)Sc1cccc(-c3cc(=O)cc(N4CCOCC4)o3)c1S2)N1CCCCC1", "note": "[Compound 157]", "IC50": "< 200"}, {"smiles": "O=C(Nc1ccc(-c2cc(=O)cc(N3CCOCC3)o2)c2c1Cc1ccccc1S2)c1ccc2nsnc2c1", "note": "[Compound 112]", "IC50": "< 200"}, {"smiles": "O=C(NNC(=O)c1ccc2c(c1)Sc1cccc(-c3cc(=O)cc(N4CCOCC4)o3)c1S2)c1ccccc1", "note": "[Compound 162]", "IC50": "< 200"}, {"smiles": "O=C(O)C1CC1C(=O)Nc1ccc2c(c1)Cc1cccc(-c3cc(=O)cc(N4CCOCC4)o3)c1S2", "note": "(stereo not drawn) [Compound 49]", "IC50": "< 200"}, {"smiles": "O=C(NCCCN1CCOCC1)c1ccc2c(c1)Sc1cccc(-c3cc(=O)cc(N4CCOCC4)o3)c1S2", "note": "[Compound 178]", "IC50": "< 200"}, {"smiles": "O=C(Nc1ccc(-c2cc(=O)cc(N3CCOCC3)o2)c2c1Cc1ccccc1S2)c1ccno1", "note": "[Compound 126]", "IC50": "< 200"}, {"smiles": "CC(C)(C)OC(=O)N1c2ccccc2Sc2c(-c3cc(=O)cc(N4CCOCC4)o3)cccc21", "note": "[Compound 134, 4-(6-Morpholin-4-yl-4-oxo-4H-pyran-2-yl)-phenothiazine-10-carboxylic acid tert-butyl ester]", "IC50": "< 200"}, {"smiles": "CC(=O)OCC(=O)Nc1ccc2c(c1)Cc1cccc(-c3cc(=O)cc(N4CCOCC4)o3)c1S2", "note": "[Compound 40]", "IC50": "< 200"}, {"smiles": "O=C(NCC(F)(F)F)c1ccc2c(c1)Sc1cccc(-c3cc(=O)cc(N4CCOCC4)o3)c1S2", "note": "[Compound 148]", "IC50": "< 200"}, {"smiles": "O=C(c1ccc2c(c1)Sc1cccc(-c3cc(=O)cc(N4CCOCC4)o3)c1S2)N1CCCCCC1", "note": "[Compound 161]", "IC50": "< 200"}, {"smiles": "O=C(CN1CCCCC1)Nc1ccc2c(c1)Cc1cccc(-c3cc(=O)cc(N4CCOCC4)o3)c1S2", "note": "[Compound 51]", "IC50": "< 200"}, {"smiles": "CC(=O)N1CCC(C(=O)Nc2ccc3c(c2)Cc2cccc(-c4cc(=O)cc(N5CCOCC5)o4)c2S3)CC1", "note": "[Compound 36]", "IC50": "< 200"}, {"smiles": "N#Cc1cccc(NC(=O)Nc2ccc(-c3cc(=O)cc(N4CCOCC4)o3)c3c2Cc2ccccc2S3)c1", "note": "[Compound 117]", "IC50": "< 200"}, {"smiles": "O=C(Nc1ccc(-c2cc(=O)cc(N3CCOCC3)o2)c2c1Cc1ccccc1S2)c1ccco1", "note": "[Compound 107]", "IC50": "< 200"}, {"smiles": "CC(C)NC(=O)c1ccc2c(c1)Sc1cccc(-c3cc(=O)cc(N4CCOCC4)o3)c1S2", "note": "[Compound 146]", "IC50": "< 200"}]}]}
